According to patent US4539149A, “β-Lactam antibacterial agents” (Beecham Group p.l.c., priority 1981, dated 1985):
≈ marks a conversion by molar mass, not a printed value. Structures can show the parent of a compound that is named as a salt.

Tested on: P. mirabilis 889
Experiment: MIC against P. mirabilis 889
Type: cell-based
Details: P. mirabilis 889

Row | SMILES | MIC against P. mirabilis 889 [µg/mL]
1 | CCN1CCN(C(=O)NC(C(=O)NC2(NC=O)C(=O)N3C(C(=O)[O-])=C(CSc4nnc(C)s4)CSC32)c2ccc(OC(C)=O)c(OC(C)=O)c2)C(=O)C1=O.[Na+] (stereo not drawn) [Example 68, 7β-[2-(3,4-Diacetoxyphenyl)-2-[(4-ethyl-2,3-dioxopiperazin-1-yl)carbonylamino]acetamido]-7α-formamido-3-[(2-methyl-1,3,4-thiadiazol-5-yl)thiomethyl]ceph-3-em-4-carboxylic acid, sodium salt] | 0.1
2 | CCN1CCN(C(=O)NC(C(=O)NC2(NC=O)C(=O)N3C(C(=O)[O-])C(C)(C)SC32)c2ccc(O)c(O)c2)C(=O)C1=O.[Na+] (stereo not drawn) [Example 33, 6β-[2-[(4-Ethyl-2,3-dioxopiperazin-1-yl)carbonylamino]-2-(3,4-dihydroxyphenyl)acetamido]6α-formamidopenicillanic acid, sodium salt] | 0.2

Same assay, conditions: Proteus mirabilis, 889, P. mirabilis 889

Row | MIC [µg/mL] | SMILES
3 | 50 | CC1(C)S[C@H]2N(C(=O)[C@@]2(NC=O)NC(=O)[C@H](NC(=O)Nc2coc3ccccc3c2=O)c2ccc(O)cc2)[C@H]1C(=O)O [Example 48, 6β-[D-2-[3-(4-Oxo-4H-1-benzopyran-3-yl)ureido]-2-(4-hydroxyphenyl)acetamido]-6α-formamidopenicillanic acid, sodium salt]
4 | > 100 | CC(=O)OCC1=C(C(=O)O)N2C(=O)[C@@](NC=O)(NC(=O)[C@H](N)c3ccccc3)[C@H]2SC1 [Example 35, 7β-(D-2-Amino-2-phenylacetamido)-7α-formamidocephalosporanic acid, trifluoroacetic acid salt]
5 | 10 | CC(=O)OCC1=C(C(=O)O)N2C(=O)[C@@](NC=O)(NC(=O)Cc3cccs3)[C@H]2SC1 [Example 42, 7α-Formamido-7β-(thien-2-ylacetamido)cephalosporanic acid, sodium salt]
6 | 100 | CC1(C)S[C@H]2N(C(=O)[C@@]2(NC=O)NC(=O)[C@H](NC(=O)Nc2cc3ccccc3oc2=O)c2ccc(O)cc2)[C@H]1C(=O)O [Example 47, 6β-[D-2-[3-(Coumarin-3-yl)ureido]-2-(4-hydroxyphenyl)acetamido]-6α-formamidopenicillanic acid, sodium salt]
7 | 10 | CC1(C)S[C@H]2N(C(=O)[C@@]2(NC=O)NC(=O)C(NC(=O)c2cc3ccccc3oc2=O)c2ccc(O)cc2)[C@H]1C(=O)O (stereo partly drawn) [Example 22, 6β-[2-[(Coumarin-3-yl)carbonylamino]-2-(4-hydroxyphenyl)acetamido]-6α-formamidopenicillanic acid, sodium salt]
8 | 0.5 | CC1(C)S[C@H]2N(C(=O)[C@@]2(NC=O)NC(=O)[C@H](NC(=O)Nc2cnc(Nc3ccc(S(N)(=O)=O)cc3)nc2O)c2ccc(O)cc2)[C@H]1C(=O)O [Example 19, 6β-[D-2-[3-[2-(4-Aminosulphonylphenyl)amino-4-hydroxypyrimidin-5-yl]ureido]-2-(4-hydroxyphenyl)acetamido]-6α-formamidopenicillanic acid, disodium salt]
9 | 25 | CC1(C)S[C@H]2N(C(=O)[C@@]2(NC=O)NC(=O)C(C(=O)O)c2ccsc2)[C@H]1C(=O)O (stereo partly drawn) [Example 3, 6α-Formamido-6β-[2-carboxy-2-(3-thienyl)acetamido]penicillanic acid, di-sodium salt]
10 | 50 | CC1(C)S[C@H]2N(C(=O)[C@@]2(NC=O)NC(=O)C(C(=O)O)c2ccccc2)[C@H]1C(=O)O (stereo partly drawn) [Example 2, 6α-Formamido-6β-(2-carboxy-2-phenylacetamido)penicillanic acid, di-sodium salt]
11 | 2.5 | CC1(C)S[C@H]2N(C(=O)[C@@]2(NC=O)NC(=O)[C@H](NC(=O)[C@@H](Cc2ccccc2)NC(N)=O)c2ccc(O)cc2)[C@H]1C(=O)O [Example 21, 6β-[D-2-(D-2-Carbamoylamino-3-phenylpropionamido)-2-(4-hydroxyphenyl)acetamido]-6α-formamidopenicillanic acid, sodium salt]
12 | 0.5 | CCN1CCN(C(=O)N[C@H](C(=O)N[C@]2(NC=O)C(=O)N3[C@@H](C(=O)O)C(C)(C)S[C@@H]32)c2cccs2)C(=O)C1=O [Example 27, 6β-[L-2-[(4-Ethyl-2,3-dioxopiperazin-1-yl)carbonylamino]-2-(thien-2-yl)acetamido]-6α-formamidopenicillanic acid sodium salt]
13 | 25 | Cc1nnc(SCC2=C(C(=O)O)N3C(=O)[C@@](NC=O)(NC(=O)Cc4cccs4)[C@H]3SC2)s1 [Example 56, 7α-Formamido-7β-[2-(thien-2-yl)acetamido]-3-[(2-methyl-1,3,4-thiadiazol-5-yl)thiomethyl]ceph-3-em-4-carboxylate acid, sodium salt]
14 | 100 | CCN1CCN(C(=O)N[C@H](C(=O)N[C@]2(NC=O)C(=O)N3C(C(=O)O)=C(COC(C)=O)CS[C@@H]32)c2ccc(O)cc2)C(=O)C1=O [Example 40, 7β-[L-2-[(4-Ethyl-2,3-dioxopiperazin-1-yl)carbonylamino]-2-(4-hydroxyphenyl)acetamido]-7α-formamidocephalosporanic acid, sodium salt]
15 | 0.25 | CC1(C)S[C@H]2N(C(=O)[C@@]2(NC=O)NC(=O)[C@H](NC(=O)N2CCN(N=Cc3ccco3)C2=O)c2ccc(O)cc2)[C@H]1C(=O)O [Example 20, 6α-Formamido-6β-[D-2-[[3-(furan-2-ylmethyleneamino)-2-oxoimidazolidin-1-yl]carbonylamino]-2-(4-hydroxyphenyl)acetamido]penicillanic acid, sodium salt]
16 | 0.1 | CCN1CCN(C(=O)N[C@@H](C(=O)N[C@]2(NC=O)C(=O)N3C(C(=O)O)=C(COC(C)=O)CS[C@@H]32)c2cccs2)C(=O)C1=O [Example 44, 7β-[D-2-[(4-Ethyl-2,3-dioxopiperazin-1-yl)carbonylamino]-2-(thien-2-yl)acetamido]-7α-formamido-cephalosporanic acid, sodium salt]
17 | 1 | CC(=O)OCC1=C(C(=O)O)N2C(=O)[C@@](NC=O)(NC(=O)[C@H](NC(=O)N3CCN(S(C)(=O)=O)C3=O)c3ccccc3)[C@H]2SC1 [Example 38, 7α-Formamido-7β-[D-2-[[3-(methylsulphonyl)-2-oxoimidazolidin-1-yl]carbonylamino]-2-phenylacetamido]cephalosporanic acid, sodium salt]
18 | 2.5 | CN(C(=O)N[C@@H](C(=O)N[C@]1(NC=O)C(=O)N2[C@@H](C(=O)O)C(C)(C)S[C@@H]21)c1ccccc1)C(=O)c1cccs1 [Example 13, 6α-Formamido-6β-[D-2-[3-methyl-3-(2-thienylcarbonyl)ureido]-2-phenylacetamido]penicillanic acid, sodium salt]
19 | 1 | CN(C(=O)C=Cc1ccccc1)C(=O)N[C@@H](C(=O)N[C@]1(NC=O)C(=O)N2[C@@H](C(=O)O)C(C)(C)S[C@@H]21)c1ccccc1 [Example 10, 6α-Formamido-6β-[D-2-(3-cinnamoyl-3-methylureido)-2-phenylacetamido]penicillanic acid, sodium salt]
20 | 1 | CC1(C)S[C@H]2N(C(=O)[C@@]2(NC=O)NC(=O)[C@H](NC(=O)N2CCNC2=O)c2ccccc2)[C@H]1C(=O)O [Example 11, 6α-Formamido-6β-[D-2-(2-oxoimidazolidin-1-ylcarbonylamino)-2-phenylacetamido]penicillanic acid sodium salt]
21 | 2.5 | CN(C(=O)C=Cc1ccccc1)C(=O)N[C@@H](C(=O)N[C@]1(NC=O)C(=O)N2[C@@H](C(=O)O)C(C)(C)S[C@@H]21)c1ccc(O)cc1 [Example 17, 6α-Formamido-6β-[D-2-(3-cinnamoyl-3-methylureido)-2-(4-hydroxyphenyl)acetamido]penicillanic acid, sodium salt]
22 | 0.1 | CC1(C)S[C@H]2N(C(=O)[C@@]2(NC=O)NC(=O)[C@H](NC(=O)N2CCN(S(C)(=O)=O)C2=O)c2ccc(O)cc2)[C@H]1C(=O)O [Example 24, 6α-Formamido-6β-[D-2-(4-hydroxyphenyl)-2-[(3-methylsulphonyl-2-oxoimidazolidin-1-yl)carbonylamino]acetamido]penicillanic acid, sodium salt]
23 | 50 (≈ 109 µM) | O=CN[C@@]1(NC(=O)Cc2cccs2)C(=O)N2C(C(=O)[O-])=C(C[n+]3ccccc3)CS[C@@H]21 [Example 60, 7α-Formamido-3-(pyridiniummethyl)-7β-(thien-2-ylacetamido)-ceph-3-em-4-carboxylate]
24 | 0.1 | CCN1CCN(C(=O)N[C@@H](C(=O)N[C@]2(NC=O)C(=O)N3C(C(=O)O)=C(COC(C)=O)CS[C@@H]32)c2ccc(O)c(O)c2)C(=O)C1=O [Example 69, 7β-[D-2-[(4-Ethyl-2,3-dioxopiperazin-1-yl)carbonylamino]-2-(3,4-dihydroxyphenyl)acetamido]-7α-formamidocephalosporanic acid, sodium salt]

Row | SMILES | MIC [µg/mL]
25 | CCN1CCN(C(=O)N[C@@H](C(=O)N[C@]2(NC=O)C(=O)N3C(C(=O)O)=C(COC(C)=O)CS[C@@H]32)c2ccc(OC(C)=O)c(OC(C)=O)c2)C(=O)C1=O [Example 41, 7β-[D-2-[(4-Ethyl-2,3-dioxopiperazin-1-yl)carbonylamino]-2-(3,4-diacetoxyphenyl)acetamido]-7α-formamidocephalosporanic acid, sodium salt] | 0.1
26 | CCN1CCN(C(=O)NC(C(=O)N[C@]2(NC=O)C(=O)N3C(C(=O)O)=C(CSc4nnnn4C)CS[C@@H]32)c2ccc(OC(C)=O)c(OC(C)=O)c2)C(=O)C1=O (single isomer, unassigned) [Example 57 (isomer 2), 7β-[2-(3,4-Diacetoxyphenyl)-2-[(4-ethyl-2,3-dioxopiperazin-1-yl)carbonylamino]acetamido]-7α-formamido-3-[(1-methyl-1H-tetrazol-5-yl)thiomethyl]ceph-3-em-4-carboxylic acid, sodium salt, isomer 2] | 0.1
27 | CC(=O)Oc1ccc([C@@H](N)C(=O)N[C@]2(NC=O)C(=O)N3[C@@H](C(=O)O)C(C)(C)S[C@@H]32)cc1OC(C)=O [Example 64, 6β-[D-2-Amino-2-(3,4-diacetoxyphenyl)acetamido]-6α-formamido penicillanic acid] | 100 (≈ 197 µM)
28 | CCN1CCN(C(=O)N[C@@H](C(=O)N[C@]2(NC=O)C(=O)N3[C@@H](C(=O)O)C(C)(C)S[C@@H]32)c2ccc(OC(C)=O)c(OC(C)=O)c2)C(=O)C1=O [Example 18, 6β-[D-2-[(4-Ethyl-2,3-dioxopiperazin-1-yl)carbonylamino]-2-(3,4-diacetoxyphenyl)acetamido]-6α-formamidopenicillanic acid, sodium salt] | 0.5
